Results taken from the NIST ThermoML archive (doi:10.1016/j.jct.2018.05.003).
± gives the expanded uncertainty stated by the source.

experiment: activity coefficient (dimensionless); of the first substance listed, at infinite dilution; xn = mol fraction of the nth substance listed; details: 298.15 K; 101.33 kPa; Liquid; Chromatography; x1 = 0

Row | activity coefficient | SMILES
1 | 2.02 ± 0.09 | CCCCCCCC [octane] + CCCCCOC(C)=O
2 | 1.9 ± 0.1 | CCCCCCC [heptane] + CCCCCOC(C)=O
3 | 1.22 ± 0.03 | C=CCCCC [hex-1-ene] + CCCCCOC(C)=O
4 | 2.43 ± 0.11 | CCCO [propan-1-ol] + CCCCCOC(C)=O
5 | 0.96 ± 0.03 | CCOC(C)=O [ethyl acetate] + CCCCCOC(C)=O
6 | 0.98 ± 0.04 | CCc1ccccc1 [ethylbenzene] + CCCCCOC(C)=O
7 | 1.74 ± 0.1 | CCCCCC [hexane] + CCCCCOC(C)=O
8 | 0.61 ± 0.03 | Fc1ccccc1 [fluorobenzene] + CCCCCOC(C)=O
9 | 2.5 ± 0.13 | CCCCCCCCCC [decane] + CCCCCOC(C)=O
10 | 2.97 ± 0.12 | CCO [ethanol] + CCCCCOC(C)=O
11 | 2.86 ± 0.11 | CC(C)O [propan-2-ol] + CCCCCOC(C)=O
12 | 1.16 ± 0.03 | C1=CCCCC1 [cyclohexene] + CCCCCOC(C)=O
13 | 1.02 ± 0.06 | CCCc1ccccc1 [propylbenzene] + CCCCCOC(C)=O
14 | 2.17 ± 0.14 | CCCCCCCCC [nonane] + CCCCCOC(C)=O
15 | 0.8 ± 0.04 | C1CCOC1 [tetrahydrofuran] + CCCCCOC(C)=O
16 | 0.27 ± 0.03 | ClC(Cl)Cl [trichloromethane] + CCCCCOC(C)=O

Continued, compound first:

Row | SMILES | activity coefficient
17 | C#CCCCCCC [1-octyne] + CCCCCOC(C)=O | 0.85 ± 0.03
18 | CC(Cl)CCl (stereo unspecified) [1,2-dichloropropane] + CCCCCOC(C)=O | 0.61 ± 0.03
19 | Cc1ccc(C)cc1 [1,4-dimethylbenzene] + CCCCCOC(C)=O | 0.92 ± 0.03
20 | Cc1cccc(C)c1 [1,3-dimethylbenzene] + CCCCCOC(C)=O | 0.9 ± 0.03
21 | C1COCCO1 [1,4-dioxane] + CCCCCOC(C)=O | 0.91 ± 0.03
22 | c1ccccc1 [benzene] + CCCCCOC(C)=O | 0.73 ± 0.03
23 | Brc1ccccc1 [bromobenzene] + CCCCCOC(C)=O | 0.78 ± 0.05
24 | CCCCCl [1-chlorobutane] + CCCCCOC(C)=O | 0.84 ± 0.03
25 | CC(C)Br [2-bromopropane] + CCCCCOC(C)=O | 0.82 ± 0.03
26 | CC#N [acetonitrile] + CCCCCOC(C)=O | 1.69 ± 0.05
27 | C=CCCCCC=C [1,7-octadiene] + CCCCCOC(C)=O | 1.14 ± 0.05
28 | C1CCCCC1 [cyclohexane] + CCCCCOC(C)=O | 1.51 ± 0.05
29 | Cc1ccccc1 [toluene] + CCCCCOC(C)=O | 0.86 ± 0.04
30 | C[N+](=O)[O-] [nitromethane] + CCCCCOC(C)=O | 1.28 ± 0.05
31 | CC(C)=O [acetone] + CCCCCOC(C)=O | 1.19 ± 0.05
32 | C=CCCCCC [1-heptene] + CCCCCOC(C)=O | 1.35 ± 0.04

experiment: not given; details: Crystal; visual observation

Row | SMILES | Normal melting temperature
33 | O=S(=O)(c1ccccc1)c1ccccc1 [diphenyl sulfone] | 125.1 ± 0.9 °C
34 | O=C(O)c1ccc(Cl)c([N+](=O)[O-])c1 [4-chloro-3-nitrobenzoic acid] | 183.2 ± 1.1 °C
35 | O=C(C(=O)c1ccccc1)c1ccccc1 [1,2-diphenylethanedione] | 95.4 ± 1.1 °C
36 | Cc1cccc(C(=O)O)c1 [3-methylbenzoic acid] | 109.2 ± 0.9 °C
37 | O=C(O)c1ccccc1O [2-hydroxybenzoic acid] | 159.6 ± 1.1 °C
38 | O=C(O)c1ccccc1 [benzoic acid] | 122.5 ± 0.9 °C
39 | O=C(O)c1cccc([N+](=O)[O-])c1 [3-nitrobenzoic acid] | 141.6 ± 0.9 °C
40 | c1ccc2c(c1)Nc1ccccc1S2 [10H-phenothiazine] | 184.8 ± 0.7 °C
41 | O=C(O)c1cc([N+](=O)[O-])ccc1Cl [2-chloro-5-nitrobenzoic acid] | 167.0 ± 1.1 °C
